Laboratory results published in PubChem BioAssay (NCI).
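1) Cells in 96-well plates. 2) Compound, 48 h, 5 concentrations. 3) Linear interpolation between surrounding doses. 4) Unreached endpoint = highest concentration. Definition used: TGI = concentration required for complete inhibition of growth.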

Key:
Test in all cases: DTP human tumour cell line panel, 48 h
[1] = system: SK-MEL-2 melanoma
[2] = system: HL-60(TB) leukemia
[3] = system: SK-MEL-5 melanoma
[4] = system: NCI-H23 lung
[5] = system: K-562 leukemia
[6] = system: U251 CNS
[7] = system: NCI-H226 lung
[8] = system: A549 NSCLC
[9] = system: UO-31 renal
[10] = system: SNB-78 CNS
[11] = system: SNB-75 CNS
[12] = system: SN12C renal
[13] = system: MALME-3M melanoma
[14] = system: CAKI-1 renal
[15] = system: SR leukemia
[16] = system: KM12 colon
[17] = system: KM20L2 colon
[18] = system: HCC-2998 colon
[19] = system: HCT-116 colon
[20] = system: SK-MEL-28 melanoma
[21] = system: SK-OV-3 ovarian
[22] = system: OVCAR-4 ovarian
[23] = system: LOX IMVI melanoma
[24] = system: OVCAR-3 ovarian
[25] = system: OVCAR-5 ovarian
[26] = system: UACC-62 melanoma
[27] = system: SF-268 CNS
[28] = system: SNB-19 CNS
[29] = system: IGROV1 ovarian
[30] = system: ACHN renal
[31] = system: M14 melanoma
[32] = system: MOLT-4 leukemia
[33] = system: TK-10 renal
[34] = system: HCT-15 colon
[35] = system: SW-620 colon
[36] = system: HOP-92 NSCLC
[37] = system: DMS 114 small cell lung
[38] = system: 786-0 renal
[39] = system: RXF 393 renal
[40] = system: OVCAR-8 ovarian
[41] = system: LXFL 529 NSCLC
[42] = system: CCRF-CEM leukemia
[43] = system: SF-539 CNS
[44] = system: UACC-257 melanoma
[45] = system: NCI-H460 lung
[46] = system: DMS 273 small cell lung
[47] = system: RPMI-8226 leukemia
[48] = system: EKVX NSCLC
[49] = system: HT29 colon
[50] = system: M19-MEL melanoma
[51] = system: DLD-1 colon
[52] = system: HOP-62 NSCLC
[53] = system: COLO 205 colon

Measured: TGI

COC1CCCCN1C(=O)c1ccccc1 (stereo not given)
not listed: [40] | [41] | [42] | [43] | [44] | [45] | [46] | [47] | [48] | [49] | [50] | [51] | [52] | [53]
> 25.3 µM: all other assays above

Cc1cccc2c1Sc1ccccc1C2NC(=O)CCN(C)C (stereo not given)
not listed: [1] | [13] | [14] | [16] | [24] | [36] | [38]
> 100 µM: all other assays above
